Data on seven molecules can be found in patent US10695324B2, “Treatment for wolfram syndrome and other endoplasmic reticulum stress disorders” (Washington University, priority 2014, dated 2020).

Data set [1] has as its system CAPNS1 protein in HEK293T cells ectopically expressing WFS2. Briefly: CAPNS1 protein level after proteasome inhibition. It is filed as cell-based. Particulars: 2 μM. As to the method: To find out whether WFS2 regulates CAPNS1 stability through the ubiquitin-proteasome pathway, HEK293T cells ectopically expressing WFS2 were treated with a proteasome inhibitor, MG132 (2 μM), and then the CAPNS1 protein level was measured.

The subject of the next data set is INS-1 823/13 cells. The experiment in a line: Small-scale screen for prevention of thapsigargin mediated cell death, caspase 3/7-Glo luminescence. It counts as cell-based, rat. Particulars: pretreated 24 hours, then 2 nM thapsigargin overnight. As to the method:
INS-1 823/13 cells were pretreated with DMSO or drugs for 24 hours the incubated in media containing 2 nM of thapsigargin (TG) overnight. Apoptosis was detected by caspase 3/7-Glo luminescence. […] These eight compounds were PARP Inhibitor, dantrolene sodium, NS398, rapamycin, pioglitazone, calpain inhibitor III, docosahexaenoic acid (DHA), and GLP-1 (FIG. 8A).

Data set [2] deals with INS-1 832/13 cells transfected with WFS2 siRNA. Briefly: WFS2-knockdown mediated cell death, cleaved caspase-3 immunoblotting. To be noted: β cell line; 5 μM for 24 hours, 24 hours post-transfection. It counts as cell-based, rat. As to the method:
(§1) Neuro2a and MIN6 cells were transfected with siRNA against WFS2 or a control scrambled siRNA (Cont.). After 36 hours post-transfection, cells were untreated or treated with 100 μM calpeptin for 12 hours. Cleaved caspase 3 and actin levels were assessed by immunoblotting (FIG. 5A, left panel). Quantified levels of cleaved caspase-3 are shown in FIG. 5A, right panel (n=3, *P<0.05). Additionally, early stage apoptosis was monitored by Annexin V staining followed by flow cytometry, FIG. 5C. INS-1 832/13 cells were transfected with scrambled siRNA and WFS2 siRNA. After 24 hours post-transfection, cells were untreated or treated with 5 μM calpeptin for 24 hours. Cleaved caspase-3, WFS2, and actin levels were monitored by immunoblotting (FIG. 5D, left panel) and quantified (FIG. 5D, right panel) (n=3, *P<0.05).
On the technique in general: Immunoblotting shows a protein as a band on a membrane.

For data set [3], the system named is Neuro2a cells transfected with siRNA against WFS2. The experiment in a line: WFS2-knockdown mediated cell death, cleaved caspase 3 immunoblotting and Annexin V staining. It counts as cell-based, mouse. To be noted: neuronal cell line; 100 μM for 12 hours, 36 hours post-transfection. As to the method: Flow cytometry analyses (FACS) were performed with LSRII Flow Cytometer (BD Biosciences, San Jose, Calif.) at the FACS core facility of Washington University School of Medicine Neural progenitor cells or NSC34 cells were plated in 24-well plates. After staining with Annexin V, cells were washed and resuspended in PBS. Cells were run using standard protocols, specifically Annexin V positive cell (i.e., apoptotic cells). The results were analyzed by FlowJo ver.7.6.3 (Ashland, Oreg.).
as §1

Data set [4] has as its system MIN6 cells transfected with siRNA against WFS2. The experiment in a line: WFS2-knockdown mediated cell death, cleaved caspase 3 immunoblotting. It counts as cell-based, rodent. Particulars: β cell line; 100 μM for 12 hours, 36 hours post-transfection. On the procedure:
as §1

The test system of the next data set is INS-1 832/13 cells. Briefly: Cytoplasmic calcium levels by Fura-2 calcium indicator. It counts as cell-based, rat. To be noted: 10 μM for 24 hours. On the procedure: (§2) First, the question of whether dantrolene could decrease cytoplasmic calcium levels was tested. […] and NSC34 cells were untreated or treated with 10 μM dantrolene for 24 hours. Cytoplasmic calcium levels were measured by Fura-2 calcium indicator over a period of 5 minutes. Thapsigargin (1 μM) was added at time 0. […] Next, it was necessary to determine if dantrolene could restore cytosolic calcium levels in WFS1-deficient cells.

Data set [5] relates to WFS1-knockdown NSC34 cells. The experiment in a line: Protection of WFS1-knockdown cells, immunoblotting of cleaved caspase-3 and cleaved spectrin. It is filed as cell-based. To be noted: 10 μM for 24 hours. As to the method:
NSC34 cells were transfected with scrambled siRNA or siRNA directed against WFS1, then untreated or treated with 10 μM dantrolene for 24 hours.

Data set [6] concerns neural progenitor cells derived from iPS cells of a Wolfram syndrome subject. Briefly: Thapsigargin-induced cell death in patient neural progenitor cells, cleaved caspase-3 immunoblotting. Particulars: pretreated 10 μM for 48 hours, then 0.125 μM thapsigargin for 20 hours.
Text: To generate iPS cells, fibroblasts were obtained from non-affected controls and subjects with Wolfram syndrome. […] To generate neural progenitor cells, iPSCs were counted and plated ˜50,000 per well in a 96-well plate to form uniform embryoid bodies. After 5 days, embryoid bodies were suspended in neural induction media and replated as adherent cultures. Fresh media was applied every day for 7 days. Neural rosettes formed in these cultures were selected and plated. Plated rosettes were fed with neural induction media every day for 4-7 days to obtain neural progenitor cells.
Wolfram patient neural progenitor cells were pretreated with or without 10 μM dantrolene for 48 hours.
Data set [7] concerns NSC34 cells transfected with WFS2 siRNA. Briefly: Cell death mediated by WFS2 knockdown, cleaved caspase-3 immunoblotting. It counts as cell-based. Particulars: 10 μM for 24 hours, 24 hours post transfection. As to the method: (§3) In to determine if danotrolene affects ER calcium homeostasis, cells were treated with ryanodine or dantrolene. INS-1 832/13 cells were transfected with scrambled siRNA or WRFS1 siRNA. After 24 hours post-transfection, cells were untreated or treated with 2 μM ryanodine for 24 hours. Cleaved caspase-3, WFS1, and GAPDH levels were monitored by immunoblotting (FIG. 10A, left panel) and quantified ([…], right panel). INS-1 832/13 cells (FIG. 10B) and NSC34 cells (FIG. 10C) were transfected with scrambled siRNA or WRFS2 siRNA. After 24 hours post transfection, cells were untreated or treated with 10 μM dantrolene for 24 hours. Cleaved caspase-3, WFS2, and GAPDH levels were monitored by immunoblotting.

The subject of data set [8] is ER-localized ryanodine receptors. To be noted: previous studies; cited from earlier work.
The subject of a further data set is NSC34 cells. Briefly: Cytoplasmic calcium levels by Fura-2 calcium indicator. It counts as cell-based. To be noted: 10 μM for 24 hours. On the procedure:
as §2

For another data set, the system named is INS1E cells. The experiment in a line: ER stress- and cytokine-induced β cell death, caspase 3/7 activity assay. To be noted: 100 nM.
For data set [9] the following is noted: cited from earlier work.
In data set [10] the test system is INS-1 832/13 cells transfected with WFS2 siRNA. The experiment in a line: Cell death mediated by WFS2 knockdown, cleaved caspase-3 immunoblotting. It counts as cell-based, rat. Particulars: 10 μM for 24 hours, 24 hours post transfection. On the procedure: as §3
Data set [11] relates to WFS1 silenced INS-1 832/13 cells. Briefly: Protection of WFS1 silenced cells, immunoblotting of cleaved caspase-3 and cleaved spectrin. It counts as cell-based, rat. To be noted: 10 μM for 48 hours. As to the method:
In order to determine whether dantrolene conferred protection in WFS1 deficient cells and WFS1 silenced INS-1 832/13 cells were treated with dantrolene. INS-1 832/13 cells were transfected with scrambled siRNA or siRNA directed against WFS1. Cells were untreated or treated with 10 μM dantrolene for 48 hours, then incubated in media containing 0.5 μM thapsigargin for 6 hours. Expression levels of cleaved caspase-3 under untreated and thapsigargin treated conditions (FIG. 9A, left panel) were quantified and shown in FIG. 9A, center and right panels (n=3, *P<0.05). Protein levels of cleaved spectrin, WFS1, and GAPDH were analyzed by immunoblotting (FIG. 9B, left panel) and quantified (FIG. 9B, right panel) (n=3, *P<0.05). […]

For data set [12], the system named is INS-1 832/13 cells expressing D1ER. Briefly: ER calcium monitoring with D1ER (FRET/CFP ratio, FACS). It counts as cell-based, rat. To be noted: various concentrations, dose-dependent manner. An excerpt:
A β cell line was developed to monitor ER calcium levels under various conditions. The ER-localized calcium sensor D1ER was modified to contain two fluorescent proteins, CFP and YFP, which were inserted onto the N- and C-terminus, respectively. INS-1 832/13 cells were transfected with the modified D1ER calcium sensor. When Ca^2+ binds to the calmodulin, an intramolecular rearrangement occurs and brings CFP and YFP into close proximity resulting in a fluorescence resonance energy transfer (FRET) from CFP to YFP. The FRET signal allows ratiometric measurements of free ER Ca^2+ and changes in Ca^2+ using FRET/CFP ratio.
INS-1 832/13 cells that stably express D1ER were treated with digitonin and ethylene glycol tetraacetic acid (EGTA) which causes the minimum value of FRET/CFP ratio, FIG. 10F. Additionally, cells treated with digitonin and CaCl2 led to the maximum value of FRET/CFP ratio, FIG. 10F.
FRET/CFP ratio was decreased in INS-1 832/13 cells treated with thapsigargin in a dose-dependent manner (FIG. 10G). Additionally, the rates of ER calcium-depleted cells increased in cells treated with thapsigargin in a dose-dependent manner (FIG. 10G).

Data set [13] deals with ER stress-mediated cell death. To be noted: have been shown (references); cited from earlier work.
The mark [14] stands for this setting: thapsigargin 1 μM added at time 0, Fura-2 over 5 minutes.

Ends that are not written are not given here. Peptide text beside a SMILES is read from it. * marks the point of attachment. Cbz = O=C(OCc1ccccc1)*

Text for INS1E cells: A Caspase 3/7 assay (Promega, Madison, Wis.) was utilized to measure caspase-3 and -7 activities in various cell lines. The assay provides a proluminescent caspase-3/7 substrate, which contains the tetrapeptide sequence DEVD. This caspase-3/7 substrate can be added directly to cell lysates. The substrate is cleaved to release a aminoluciferin, which is a substrate for luciferase used in the production of light. The signal is proportional to caspase-3/7 activity.

With `CC(C)C[C@@H](C=O)NC(=O)[C@H](CC(C)C)NC(=O)[C@H](CC(C)C)NC(=O)OCc1ccccc1` [MG132] (Cbz-Leu-Leu-Leu-aldehyde), in data set [1], the CAPNS1 protein level entry is “stabilized CAPNS1 protein”.
Turning to `CS(=O)(=O)Nc1ccc([N+](=O)[O-])cc1OC1CCCCC1` [NS398], in the data set on INS-1 823/13 cells (10 μM (Table 3)), the “suppression of thapsigargin mediated cell death (apoptosis by caspase 3/7-Glo luminescence)” value (from here on “suppression”) is “significantly suppress thapsigargin mediated cell death”.
Turning to `CC(C)[C@H](NC(=O)OCc1ccccc1)C(=O)N[C@H](C=O)Cc1ccccc1` [calpain inhibitor III] (Cbz-Val-Phe-aldehyde), the “suppression” value with INS-1 823/13 cells (1 μM (Table 3)) is “significantly suppress thapsigargin mediated cell death”.
Take `CCCC[C@@H](C=O)NC(=O)[C@H](CC(C)C)NC(=O)OCc1ccccc1` [calpeptin]: the “WFS2-knockdown mediated cell death” value in data set [2], in [3] and in data set [4] was “prevented WFS2-knockdown mediated cell death” each time.
For `O=C1CN(/N=C/c2ccc(-c3ccc([N+](=O)[O-])cc3)o2)C(O)=N1` [dantrolene, 1-[[5-(4-nitrophenyl)-2-furyl]methylideneamino]imidazolidine-2,4-dione], the cytosolic calcium levels entry with INS-1 832/13 cells (setting [14]) and in the data set on NSC34 cells (setting [14]) was “decreased cytosolic calcium levels” each time. Besides, the “cytosolic calcium levels in WFS1-knockdown cells” value in the data set on INS-1 832/13 cells (WFS1-knockdown INS-1 832/13 cells) and in the data set on NSC34 cells (WFS1-knockdown NSC34 cells) was “restored cytosolic calcium levels” throughout. In data set [5], the “calpain activation (cleaved spectrin)” value is on record as “prevented calpain activation”. The “cell death (cleaved caspase-3)” value in data set [5] is “prevented calpain activation and cell death”. Also, the “thapsigargin-induced cell death (cleaved caspase-3)” value in [6] is reported as “could prevent cell death”. For the same molecule, the “cell death mediated by WFS2 knockdown” value in data set [7] and in data set [10] was “did not block cell death mediated by WFS2 knockdown” throughout. Also, the “suppression” value in the data set with INS-1 823/13 cells (10 μM (Table 3)) is recorded as “significantly suppress thapsigargin mediated cell death”. For the same molecule, the “leakage of calcium from the ER to the cytosol” value in data set [8] is recorded as “suppresses leakage of calcium from the ER to the cytosol”. The “cytokine induced β cell death” value in the data set on INS1E cells (inflammatory cytokine 50 ng/mL) is reported as “prevented”. The “thapsigargin-induced β cell death” value with INS1E cells (thapsigargin 10 nM for 24 hours) was “prevented”. Also, the solubility in water result in [9] is on record as “poorly soluble in water”. Moreover, the “calpain activity (cleaved spectrin)” value in data set [11] (then 0.5 μM thapsigargin for 6 hours) was “suppression of apoptosis and calpain activity”. In addition, the “apoptosis (cleaved caspase-3)” value in data set [11] (then 0.5 μM thapsigargin for 6 hours or untreated) is on record as “suppression of apoptosis”.
Take `C/C=C(/C)C(=O)O[C@H]1C(C)=C2[C@H]([C@@H]1OC(=O)CCCCCCC)[C@@](C)(OC(C)=O)C[C@H](OC(=O)CCC)[C@@]1(O)[C@H]2OC(=O)[C@@]1(C)O` [thapsigargin]: in [12], the “FRET/CFP ratio (ER calcium)” value is reported as “decreased” and the “rates of ER calcium-depleted cells” value is listed as “increased”.
Turning to “GLP-1: Glucagon-like peptide-1; FDA approved drug (HAEGTFTSDVSSYLEGQAAKEFIAWLVKGR; ends and bridges not checked; UniProt P01275 98-127, looked up)”, the “protection against ER stress-mediated cell death” value in data set [13] is recorded as “confer protection against ER stress-mediated cell death”. In addition, in the data set with INS-1 823/13 cells (50 nM (Table 3)), the “suppression” value was “significantly suppress thapsigargin mediated cell death”.
